Measured values: patent US11027155B2, “Method for prevention and treatment of diabetic kidney disease” (priority 2019, dated 2021)
“Also recorded” adds a separate entry of the source.

Key:
diabetic patients = details: cited from earlier work
hyaluronan = assay: Serum hyaluronan content in 4-MU fed diabetic nephropathy mice; format: in vivo; details: 4-MU fed animals, 5% 4-MU sodium salt in diet, after 3 weeks of treatment
Description: The present disclosure describes a new use of HA synthesis inhibitors for the treatment of Diabetic Kidney Disease. To study the effects of HA inhibitors on the development of DKD, our experiments were done by providing the test drug (4-Methylumbelliferone, 4-MU) in the food to one of the best available murine models of diabetic nephropathy, the diabetic and moderately hypertensive endothelial nitric oxide synthase/leptin receptor deficient (eNOS−/−/db/db) mice (Mohan S., et al. Laboratory Investigation. 2008, vol. 88, p. 515-528; Betz B., at al. Nephron Exp Nephrol. 2014, vol. 126, p. 191-195). At 9 weeks old, the double homozygous mutant eNOS/db mice were separated in two similar groups regarding sex, body weight, non-fasting plasma glucose concentrations, and consanguinity. Experimental animals were fed at libitum identical artificial diets formulated by Envigo-Teklad, containing or not 5% of 4-MU sodium salt (Sigma, cat. no. M1508) until 19 weeks of age. Both diets provided 3.5 Kcal/g and contained by weight: 17.7% of protein, 53.7% of carbohydrate, and 7.2% of fat. Diets were kept sealed under vacuum at −20° C. protected from light. Every week, the old food was removed, and animals were provided fresh food pellets. […] We detected in 4-MU fed animals a reduction of serum hyaluronan content of about 30% after 3 weeks of treatment.

[1] = Body weight and appearance monitored weekly in eNOS/db mice; format: in vivo
Description: The present disclosure describes a new use of HA synthesis inhibitors for the treatment of Diabetic Kidney Disease. To study the effects of HA inhibitors on the development of DKD, our experiments were done by providing the test drug (4-Methylumbelliferone, 4-MU) in the food to one of the best available murine models of diabetic nephropathy, the diabetic and moderately hypertensive endothelial nitric oxide synthase/leptin receptor deficient (eNOS−/−/db/db) mice (Mohan S., et al. Laboratory Investigation. 2008, vol. 88, p. 515-528; Betz B., at al. Nephron Exp Nephrol. 2014, vol. 126, p. 191-195).
(§1) At 9 weeks old, the double homozygous mutant eNOS/db mice were separated in two similar groups regarding sex, body weight, non-fasting plasma glucose concentrations, and consanguinity. Experimental animals were fed at libitum identical artificial diets formulated by Envigo-Teklad, containing or not 5% of 4-MU sodium salt (Sigma, cat. no. M1508) until 19 weeks of age. Both diets provided 3.5 Kcal/g and contained by weight: 17.7% of protein, 53.7% of carbohydrate, and 7.2% of fat. Diets were kept sealed under vacuum at −20° C. protected from light. Every week, the old food was removed, and animals were provided fresh food pellets.
The weight and appearance of the animals was monitored weekly.

plasma glucose = assay: Non-fasting plasma glucose (commercial kit EIAGLUC); format: in vivo, mice; details: 4-MU-treated vs control, end of the experiments (18-week-old)
Description: as §1, with “-20°” for “−20°”, “pellets. Plasma glucose levels were measured using a commercial kit ([…], Invitrogen). […] This fact remarks an important difference between our invention and the use of 4-MU to treat autoimmune diabetes.” for “pellets.”

C-Reactive Protein = C-Reactive Protein immunoassay in serum; format: in vivo, mice; details: 4 weeks after being fed with the special diets
Description: as §1, with “pellets. […] C—RP is considering the gold standard marker for inflammation and the lack of differences in this protein between our experimental mice points out that 4-MU is not affecting the development of DKD by crucially changing the inflammatory responses in our diabetic animals but for other mechanism of action.” for “pellets.”

eNOS−/−/db/db mice [2] = assay: Glomerular Filtration Rate by single bolus FITC-inulin in conscious mice; format: in vivo
Description: The present disclosure describes a new use of HA synthesis inhibitors for the treatment of Diabetic Kidney Disease. To study the effects of HA inhibitors on the development of DKD, our experiments were done by providing the test drug (4-Methylumbelliferone, 4-MU) in the food to one of the best available murine models of diabetic nephropathy, the diabetic and moderately hypertensive endothelial nitric oxide synthase/leptin receptor deficient (eNOS−/−/db/db) mice (Mohan S., et al. Laboratory Investigation. 2008, vol. 88, p. 515-528; Betz B., at al. Nephron Exp Nephrol. 2014, vol. 126, p. 191-195). At 9 weeks old, the double homozygous mutant eNOS/db mice were separated in two similar groups regarding sex, body weight, non-fasting plasma glucose concentrations, and consanguinity. Experimental animals were fed at libitum identical artificial diets formulated by Envigo-Teklad, containing or not 5% of 4-MU sodium salt (Sigma, cat. no. M1508) until 19 weeks of age. Both diets provided 3.5 Kcal/g and contained by weight: 17.7% of protein, 53.7% of carbohydrate, and 7.2% of fat. […] In our experiments, GFR were determined before (week 8) and after 10 week of treatments (week 18) by a single bolus injection of fluorescein isothiocyanate-(FITC) labeled inulin in conscious mice (Rieg T. J Vis Exp. 2013, May 10: e50330, doi: 10.3791/50330). […]

eNOS−/−/db/db mice [3] = assay: Comparison of kidney morphology; format: in vivo; details: diabetic mice fed 4-MU diet vs control diet
Description: The present disclosure describes a new use of HA synthesis inhibitors for the treatment of Diabetic Kidney Disease. To study the effects of HA inhibitors on the development of DKD, our experiments were done by providing the test drug (4-Methylumbelliferone, 4-MU) in the food to one of the best available murine models of diabetic nephropathy, the diabetic and moderately hypertensive endothelial nitric oxide synthase/leptin receptor deficient (eNOS−/−/db/db) mice (Mohan S., et al. Laboratory Investigation. 2008, vol. 88, p. 515-528; Betz B., at al. Nephron Exp Nephrol. 2014, vol. 126, p. 191-195). At 9 weeks old, the double homozygous mutant eNOS/db mice were separated in two similar groups regarding sex, body weight, non-fasting plasma glucose concentrations, and consanguinity. Experimental animals were fed at libitum identical artificial diets formulated by Envigo-Teklad, containing or not 5% of 4-MU sodium salt (Sigma, cat. no. M1508) until 19 weeks of age. Both diets provided 3.5 Kcal/g and contained by weight: 17.7% of protein, 53.7% of carbohydrate, and 7.2% of fat. Diets were kept sealed under vacuum at −20° C. protected from light. Every week, the old food was removed, and animals were provided fresh food pellets.

eNOS−/−/db/db mice [4] = assay: Kidney histopathology (H&E, PAS), semi-quantitative glomerular index; format: in vivo
Description: The present disclosure describes a new use of HA synthesis inhibitors for the treatment of Diabetic Kidney Disease. To study the effects of HA inhibitors on the development of DKD, our experiments were done by providing the test drug (4-Methylumbelliferone, 4-MU) in the food to one of the best available murine models of diabetic nephropathy, the diabetic and moderately hypertensive endothelial nitric oxide synthase/leptin receptor deficient (eNOS−/−/db/db) mice (Mohan S., et al. Laboratory Investigation. 2008, vol. 88, p. 515-528; Betz B., at al. Nephron Exp Nephrol. 2014, vol. 126, p. 191-195). At 9 weeks old, the double homozygous mutant eNOS/db mice were separated in two similar groups regarding sex, body weight, non-fasting plasma glucose concentrations, and consanguinity. Experimental animals were fed at libitum identical artificial diets formulated by Envigo-Teklad, containing or not 5% of 4-MU sodium salt (Sigma, cat. no. M1508) until 19 weeks of age. Both diets provided 3.5 Kcal/g and contained by weight: 17.7% of protein, 53.7% of carbohydrate, and 7.2% of fat. Diets were kept sealed under vacuum at −20° C. protected from light. Every week, the old food was removed, and animals were provided fresh food pellets. Finally, for histopathology analysis kidneys were collected from 4-MU-treated and control mice at the end of the experiment. Organs were fixed in 10% NB formalin for 44 hours, embedded in paraffin, and 3 urn sections were stained with Hematoxylin and Eosin (H&E) or Periodic acid—Schiff (PAS), before being examined following Zhao H J et al. (Zhao H. J., et al. J Am Soc Nephrol. 2006, vol. 17, p. 2664-2669). A semi-quantitative index was used to evaluate the degree of glomerular mesangial expansion and sclerosis. 50 glomeruli on a single section (25 from each kidney) were scored from 0 to 4, where 0 represents no lesions and 1, 2, 3, and 4 represent mesangial matrix expansion or sclerosis involving less than or equal to 25, 26-50, 51-75, or >75% of the glomerular tuft area, respectively. End stage sclerotic glomeruli (glomerulosclerosis) were counted, as well as the number of glomeruli that contained nodules, and the percentage of affected glomeruli within the 50 analyzed. Histopathology staining and analyses were done by an independent service and the specialists were blind regarding the nature of the samples.

type 1 diabetes = details: after the onset of autoimmune insulitis, two mice models; cited from earlier work
[5] = cited from earlier work
[6] = system: LPS-Induced Lung Inflammation; details: mice; cited from earlier work
[7] = system: aortic smooth muscle cell (aSMC); details: in vitro; cited from earlier work
[8] = system: renal ischemia-reperfusion injury (IRI); details: cited from earlier work
HA synthesis = details: cited from earlier work
malignant tumor cells = details: in vitro and animal models of liver, breast, prostate, pancreatic, and renal carcinomas; cited from earlier work
[9] = 4-MU-treated vs control, end of the experiment

## Cc1ccc([C@@H]2O[C@H](CO)[C@@H](O)[C@H](O)[C@H]2O)cc1Cc1ccc(-c2ccc(F)cc2)s1 [canagliflozin]
Diabetic patients
  vascular and renal effects: vascular and renal protective effects

## Cc1cc(=O)oc2cc(O)ccc12 [4-MU, 4-Methylumbelliferone]
hyaluronan
  reduction of serum hyaluronan content: about 30%
[1]; DKD animals
  overall health and survival: impacted their overall health and survival
[1]; eNOS/db mice, 4-MU diet from 9 to 19 weeks of age
  body weight over time vs control diet: keep their body weight for a longer period; also recorded: kept their body weight longer
[1]; final stages of the disease, end of the experiments
  weight loss (final weight divided by maximum reached weight) vs control: significant difference in weight loss; also recorded: control diet lost significantly more weight than the mice treated with 4-MU
Plasma glucose
  non-fasting plasma glucose levels: No significant difference; also recorded: did not affect
C-Reactive Protein
  C-RP values in serum, treated vs untreated: No significant difference; also recorded: not significant differences
eNOS−/−/db/db mice [2]; after 10 week of treatments
  GFR, initial (week 7-8) vs final (week 18) in treated mice: No significant difference; also recorded: kept their GFR values unchanged
eNOS−/−/db/db mice [2]; from GFR results
  progression of DKD: significantly delayed the progression of DKD
eNOS−/−/db/db mice [3]
  kidney morphology: abnormalities are less pronounced; also recorded: less advanced degree of DKD
eNOS−/−/db/db mice [4]; 4-MU-treated mice, unlike control
  signs of nephritis and tubulitis: did not found signs
eNOS−/−/db/db mice [4]; [9]
  glomerular injury index: significant lower
  nodular glomerulosclerosis: lower
eNOS−/−/db/db mice [4]; FIG. 8
  degree of kidney injuries (histopathology summary): lower degree of kidney injuries
Type 1 diabetes
  progression to type 1 diabetes: halted progression to type 1 diabetes
[5]
  metabolism in vivo to 4-MUG and 4-MUS: rapidly metabolized
[6]
  LPS-Induced Lung Inflammation: can suppress
[7]
  aSMC apoptosis: induced apoptosis
  aSMC proliferation, migration: blocked
[8]; 4-MU treatment
  hyaluronan content in kidneys: can reduce
[8]; inhibition pre and post-operatively
  renal ischemia-reperfusion injury after kidney transplants: protective
HA synthesis
  HA synthesis: selectively inhibited
Malignant tumor cells
  cytostatic / anti-metastatic effect on malignant tumor cells: useful as cytostatic or in preventing metastasis
